Measurements: the NIST ThermoML archive (doi:10.1021/je700140j)
± gives the expanded uncertainty stated by the source.

Experiments:
[1] = refractive index (Na D-line) (dimensionless); xn = mol fraction of the nth substance listed; conditions: 100.8 kPa, Liquid, Standard Abbe refractometry, x1 = 1
[2] = xn = mol fraction of the nth substance listed; conditions: x1 = 1; for surface tension liquid-gas: Ring tensiometer; for mass density / viscosity: 100.8 kPa, Liquid
[3] = for surface tension liquid-gas: Ring tensiometer; for mass density / viscosity: 100.8 kPa, Liquid
[4] = refractive index (Na D-line) (dimensionless); conditions: 101.33 kPa, Liquid, Standard Abbe refractometry

With CC(C)O [propan-2-ol] + OCc1ccccc1 the refractive index ([1]; 298.15 K) was 1.37507 ± 0.00033, the refractive index ([1]; 308.15 K) was 1.37063 ± 0.00033 and the refractive index ([1]; 318.15 K) was 1.3661 ± 0.00033. The surface tension liquid-gas ([2]; 298.15 K) was 20.85 ± 0.32 mN/m, the mass density ([2]; 298.15 K) was 781.17 ± 0.61 kg/m3 and the viscosity ([2]; 298.15 K) was 2.082 ± 0.028 mPa·s. It also gave a surface tension liquid-gas ([2]; 308.15 K) of 20.05 ± 0.31 mN/m, a mass density ([2]; 308.15 K) of 772.53 ± 0.63 kg/m3 and a viscosity ([2]; 308.15 K) of 1.55 ± 0.021 mPa·s. For the same molecule, the surface tension liquid-gas ([2]; 318.15 K) was 19.35 ± 0.31 mN/m, the mass density ([2]; 318.15 K) was 763.52 ± 0.65 kg/m3 and the viscosity ([2]; 318.15 K) was 1.181 ± 0.016 mPa·s.

For CC(C)O [propan-2-ol] + OCCc1ccccc1, the refractive index ([1]; 298.15 K) was 1.37507 ± 0.00033, the refractive index ([1]; 308.15 K) was 1.37063 ± 0.00033 and the refractive index ([1]; 318.15 K) was 1.3661 ± 0.00033. It also gave a surface tension liquid-gas ([2]; 298.15 K) of 20.85 ± 0.32 mN/m, a mass density ([2]; 298.15 K) of 781.17 ± 0.61 kg/m3 and a viscosity ([2]; 298.15 K) of 2.082 ± 0.028 mPa·s. It also gave a surface tension liquid-gas ([2]; 308.15 K) of 20.05 ± 0.31 mN/m, a mass density ([2]; 308.15 K) of 772.53 ± 0.63 kg/m3 and a viscosity ([2]; 308.15 K) of 1.55 ± 0.021 mPa·s. For the same molecule, the surface tension liquid-gas ([2]; 318.15 K) was 19.35 ± 0.31 mN/m, the mass density ([2]; 318.15 K) was 763.52 ± 0.65 kg/m3 and the viscosity ([2]; 318.15 K) was 1.181 ± 0.016 mPa·s.

Molecule OCCc1ccccc1 [2-phenylethanol] has a surface tension liquid-gas ([3]; 298.15 K) of 39.43 ± 0.58 mN/m, a mass density ([3]; 298.15 K) of 1016.2 ± 0.39 kg/m3 and a viscosity ([3]; 298.15 K) of 11.4 ± 0.14 mPa·s. The surface tension liquid-gas ([3]; 308.15 K) was 38.93 ± 0.57 mN/m, the mass density ([3]; 308.15 K) was 1008.63 ± 0.37 kg/m3 and the viscosity ([3]; 308.15 K) was 7.518 ± 0.098 mPa·s. The surface tension liquid-gas ([3]; 318.15 K) was 38.35 ± 0.56 mN/m, the mass density ([3]; 318.15 K) was 1000.98 ± 0.36 kg/m3 and the viscosity ([3]; 318.15 K) was 5.232 ± 0.071 mPa·s. The refractive index ([4]; 298.15 K) was 1.53269 ± 0.00037, the refractive index ([4]; 308.15 K) was 1.52852 ± 0.00037 and the refractive index ([4]; 318.15 K) was 1.52427 ± 0.00037.

For CC(C)O [propan-2-ol], the surface tension liquid-gas ([3]; 298.15 K) was 20.85 ± 0.32 mN/m, the mass density ([3]; 298.15 K) was 781.17 ± 0.61 kg/m3 and the viscosity ([3]; 298.15 K) was 2.082 ± 0.028 mPa·s. It also gave a surface tension liquid-gas ([3]; 308.15 K) of 20.05 ± 0.31 mN/m, a mass density ([3]; 308.15 K) of 772.53 ± 0.63 kg/m3 and a viscosity ([3]; 308.15 K) of 1.55 ± 0.021 mPa·s. It also gave a surface tension liquid-gas ([3]; 318.15 K) of 19.35 ± 0.31 mN/m, a mass density ([3]; 318.15 K) of 763.52 ± 0.65 kg/m3 and a viscosity ([3]; 318.15 K) of 1.181 ± 0.016 mPa·s. For the same molecule, the refractive index ([4]; 298.15 K) was 1.37507 ± 0.00033, the refractive index ([4]; 308.15 K) was 1.37063 ± 0.00033 and the refractive index ([4]; 318.15 K) was 1.3661 ± 0.00033.

With OCc1ccccc1 [benzenemethanol] the surface tension liquid-gas ([3]; 298.15 K) was 38.63 ± 0.54 mN/m, the mass density ([3]; 298.15 K) was 1041.4 ± 0.29 kg/m3 and the viscosity ([3]; 298.15 K) was 5.555 ± 0.071 mPa·s. It also gave a surface tension liquid-gas ([3]; 308.15 K) of 37.73 ± 0.53 mN/m, a mass density ([3]; 308.15 K) of 1033.6 ± 0.27 kg/m3 and a viscosity ([3]; 308.15 K) of 4.093 ± 0.054 mPa·s. The surface tension liquid-gas ([3]; 318.15 K) was 36.75 ± 0.52 mN/m, the mass density ([3]; 318.15 K) was 1025.72 ± 0.26 kg/m3 and the viscosity ([3]; 318.15 K) was 3.12 ± 0.041 mPa·s. It also gave a refractive index ([4]; 298.15 K) of 1.53843 ± 0.00033, a refractive index ([4]; 308.15 K) of 1.53421 ± 0.00033 and a refractive index ([4]; 318.15 K) of 1.52994 ± 0.00033.

With OCc1ccccc1 [benzenemethanol] + OCCc1ccccc1 the refractive index ([1]; 298.15 K) was 1.53843 ± 0.00033, the refractive index ([1]; 308.15 K) was 1.53421 ± 0.00033 and the refractive index ([1]; 318.15 K) was 1.52994 ± 0.00033. The surface tension liquid-gas ([2]; 298.15 K) was 38.63 ± 0.54 mN/m, the mass density ([2]; 298.15 K) was 1041.4 ± 0.29 kg/m3 and the viscosity ([2]; 298.15 K) was 5.555 ± 0.071 mPa·s. It also gave a surface tension liquid-gas ([2]; 308.15 K) of 37.73 ± 0.53 mN/m, a mass density ([2]; 308.15 K) of 1033.6 ± 0.27 kg/m3 and a viscosity ([2]; 308.15 K) of 4.093 ± 0.054 mPa·s. The surface tension liquid-gas ([2]; 318.15 K) was 36.75 ± 0.52 mN/m, the mass density ([2]; 318.15 K) was 1025.72 ± 0.26 kg/m3 and the viscosity ([2]; 318.15 K) was 3.12 ± 0.041 mPa·s.
